# Source: US20180327461A1, “COMPOSITIONS AND METHODS FOR CONTROL OF VECTOR-BORNE DISEASE” (STC.UNM, priority 2015, published 2018)
# Columns and labels:
# [1] = test system: X. fastidiosa strain Temecula; type: cell-based, Xylella fastidiosa
# P. agglomerans = type: cell-based, Pantoea agglomerans
Compound,concentration that killed X. fastidiosa [1] [µM],toxicity to X. fastidiosa compared with P. agglomerans [1],concentration killing P. agglomerans relative to concentration killing X. fastidiosa (P. agglomerans),concentration that killed P. agglomerans (P. agglomerans) [µM]
"CC[C@H](C)[C@H](NC(=O)CN)C(=O)NCC(=O)N[C@@H](C)C(=O)N[C@H](C(=O)N[C@@H](CC(C)C)C(=O)N[C@@H](CCCCN)C(=O)N[C@H](C(=O)N[C@@H](CC(C)C)C(=O)N[C@H](C(=O)N[C@H](C(=O)NCC(=O)N[C@@H](CC(C)C)C(=O)N1CCC[C@H]1C(=O)N[C@@H](C)C(=O)N[C@@H](CC(C)C)C(=O)N[C@H](C(=O)N[C@@H](CO)C(=O)N[C@@H](Cc1c[nH]c2ccccc12)C(=O)N[C@H](C(=O)N[C@@H](CCCCN)C(=O)N[C@@H](CCCNC(=N)N)C(=O)N[C@@H](CCCCN)C(=O)N[C@@H](CCCNC(=N)N)C(=O)N[C@@H](CCC(N)=O)C(=O)N[C@@H](CCC(N)=O)C(N)=O)[C@@H](C)CC)[C@@H](C)CC)[C@@H](C)O)[C@@H](C)O)C(C)C)C(C)C [melittin, Melittin]",5,more toxic to X. fastidiosa than P. agglomerans,five times higher,25
scorpine-like molecule [SLM],25,more toxic to X. fastidiosa than P. agglomerans,–,> 75
